Measured values reported in patent publication US20240158391A1, “DERIVATIVES OF 4-(IMIDAZO[1,2-A]PYRIDIN-3-YL)-N-(PYRIDIN-3-YL) PYRIMIDIN-2- AMINE FOR TREATING PROLIFERATIVE DISEASES AND CONDITIONS” (AUCENTRA THERAPEUTICS PTY LTD, priority 2019, published 2024).

Experiments:
MV-4-11 = test: Proliferation assay (resazurin, leukemia cell lines), MV-4-11; format: cell-based; conditions: Homo sapiens, MV4-11, read-out: 72 h Growth inhibition GI50, MV-4-11 cells
Description: The following compounds were used as comparators.

CDK1/CyclinB = CDK1/CyclinB (Homo sapiens, UniProt P06493); test: ADP Glo kinase assay, CDK1/CyclinB; format: biochemical; conditions: for remaining activity at 1 µM: compound at 1 μM, read-out: Residual enzymatic activity (%) at 1 μM, CDK1 B; for Ki: Km ATP, read-out: Enzymatic inhibition, Ki, CDK1 B
Procedure: (§1) Test compounds are used in 1:3 serial dilutions for 10 concentrations (from 10-0.0005 μM) in 0.5% DMSO. […] The kinase reactions are run for optimised time period at room temperature and then the reaction is stopped by adding 5 μL of ADP Glo reagent.

CDK4/CyclinD1 = CDK4/CyclinD1 (Homo sapiens, UniProt P11802); test: ADP Glo kinase assay, CDK4/CyclinD1; format: biochemical; conditions: for remaining activity at 1 µM: compound at 1 μM, read-out: Residual enzymatic activity (%) at 1 μM, CDK4 D1; for Ki: Km ATP, read-out: Enzymatic inhibition, Ki, CDK4 D1
Procedure: as §1

CDK6/CyclinD3 = CDK6/CyclinD3 (Homo sapiens, UniProt Q00534); test: ADP Glo kinase assay, CDK6/CyclinD3; format: biochemical; conditions: for remaining activity at 1 µM: compound at 1 μM, read-out: Residual enzymatic activity (%) at 1 μM, CDK6 D3; for Ki: Km ATP, read-out: Enzymatic inhibition, Ki, CDK6 D3
Procedure: as §1

CDK9/CyclinT1 = CDK9/CyclinT1 (Homo sapiens, UniProt P50750); test: ADP Glo kinase assay, CDK9/CyclinT1; format: biochemical; conditions: for Ki: CDK9/CyclinT1, Km ATP, read-out: Enzymatic inhibition, Ki, CDK9 T1
Procedure: as §1

CDK7/CyclinH/Mat1 = CDK7/CyclinH/Mat1 (Homo sapiens, UniProt P50613); test: ADP Glo kinase assay, CDK7/CyclinH/Mat1; format: biochemical; conditions: for remaining activity at 1 µM: compound at 1 μM, read-out: Residual enzymatic activity (%) at 1 μM, CDK7 H; for Ki: Km ATP, read-out: Enzymatic inhibition, Ki, CDK7 H
Procedure: as §1

CDK2/CyclinA2 = CDK2/CyclinA2 (Homo sapiens, UniProt P24941); test: ADP Glo kinase assay, CDK2/CyclinA2; format: biochemical; conditions: for remaining activity at 1 µM: compound at 1 μM, read-out: Residual enzymatic activity (%) at 1 μM, CDK2 A; for Ki: Km ATP, read-out: Enzymatic inhibition, Ki, CDK2 A
Procedure: as §1

FLT3-ITD = molecular target: T1, FLT3-ITD (Homo sapiens, UniProt P36888); test: ADP Glo kinase assay, FLT3-ITD; format: biochemical; conditions: Km ATP 100 μM, read-out: Enzymatic inhibition, Ki, FLT3-ITD
T1 sequence (P36888 1-993): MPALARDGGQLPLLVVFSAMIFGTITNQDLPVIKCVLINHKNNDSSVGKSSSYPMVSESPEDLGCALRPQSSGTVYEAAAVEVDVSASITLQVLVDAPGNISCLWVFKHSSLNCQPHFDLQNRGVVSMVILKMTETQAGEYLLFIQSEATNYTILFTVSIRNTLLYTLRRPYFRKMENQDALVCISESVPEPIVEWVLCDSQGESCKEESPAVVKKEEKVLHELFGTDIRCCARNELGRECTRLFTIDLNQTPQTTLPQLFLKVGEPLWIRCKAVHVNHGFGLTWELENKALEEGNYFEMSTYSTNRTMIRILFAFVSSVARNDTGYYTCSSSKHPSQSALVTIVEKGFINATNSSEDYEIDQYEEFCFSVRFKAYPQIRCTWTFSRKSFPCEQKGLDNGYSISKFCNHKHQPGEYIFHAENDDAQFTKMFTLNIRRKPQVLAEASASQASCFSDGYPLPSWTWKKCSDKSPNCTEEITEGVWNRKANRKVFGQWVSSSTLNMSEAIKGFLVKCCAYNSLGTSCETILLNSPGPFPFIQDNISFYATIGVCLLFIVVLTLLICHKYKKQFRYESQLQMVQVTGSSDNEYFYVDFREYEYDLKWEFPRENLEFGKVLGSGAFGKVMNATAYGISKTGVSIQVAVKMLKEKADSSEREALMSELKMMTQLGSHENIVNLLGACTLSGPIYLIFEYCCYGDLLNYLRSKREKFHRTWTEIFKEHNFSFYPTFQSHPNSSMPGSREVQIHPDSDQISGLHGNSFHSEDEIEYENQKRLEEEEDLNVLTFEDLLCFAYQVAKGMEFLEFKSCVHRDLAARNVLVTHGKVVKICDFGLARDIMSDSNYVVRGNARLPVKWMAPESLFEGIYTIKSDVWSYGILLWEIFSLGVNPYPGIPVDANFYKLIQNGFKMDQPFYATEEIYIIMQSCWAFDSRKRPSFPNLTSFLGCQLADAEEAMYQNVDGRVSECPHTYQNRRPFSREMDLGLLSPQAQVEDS
Procedure: as §1

Chain of CDK1/CyclinB (P06493 whole entry, species assumed): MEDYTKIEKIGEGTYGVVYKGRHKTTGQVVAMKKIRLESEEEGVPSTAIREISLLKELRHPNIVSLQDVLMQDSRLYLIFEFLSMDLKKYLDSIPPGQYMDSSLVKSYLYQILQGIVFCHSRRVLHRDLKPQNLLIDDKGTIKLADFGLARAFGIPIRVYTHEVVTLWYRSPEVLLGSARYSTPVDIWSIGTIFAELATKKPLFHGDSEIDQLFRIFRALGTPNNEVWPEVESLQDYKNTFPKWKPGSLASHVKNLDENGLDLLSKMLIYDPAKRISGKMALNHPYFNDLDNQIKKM
Chain of CDK1/CyclinB (P14635 whole entry partner, species assumed): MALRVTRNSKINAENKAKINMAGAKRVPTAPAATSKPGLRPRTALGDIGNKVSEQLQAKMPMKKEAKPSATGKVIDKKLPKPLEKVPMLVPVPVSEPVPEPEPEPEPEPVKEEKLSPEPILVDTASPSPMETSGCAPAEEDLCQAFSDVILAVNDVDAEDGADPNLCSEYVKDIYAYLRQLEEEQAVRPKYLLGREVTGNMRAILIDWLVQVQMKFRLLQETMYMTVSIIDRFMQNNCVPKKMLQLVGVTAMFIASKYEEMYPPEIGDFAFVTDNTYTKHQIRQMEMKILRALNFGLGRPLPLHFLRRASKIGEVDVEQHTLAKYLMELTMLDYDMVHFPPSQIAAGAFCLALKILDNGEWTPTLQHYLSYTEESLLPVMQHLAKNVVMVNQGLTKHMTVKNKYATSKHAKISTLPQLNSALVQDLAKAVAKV
Chain of CDK6/CyclinD3 (Q00534 whole entry, species assumed): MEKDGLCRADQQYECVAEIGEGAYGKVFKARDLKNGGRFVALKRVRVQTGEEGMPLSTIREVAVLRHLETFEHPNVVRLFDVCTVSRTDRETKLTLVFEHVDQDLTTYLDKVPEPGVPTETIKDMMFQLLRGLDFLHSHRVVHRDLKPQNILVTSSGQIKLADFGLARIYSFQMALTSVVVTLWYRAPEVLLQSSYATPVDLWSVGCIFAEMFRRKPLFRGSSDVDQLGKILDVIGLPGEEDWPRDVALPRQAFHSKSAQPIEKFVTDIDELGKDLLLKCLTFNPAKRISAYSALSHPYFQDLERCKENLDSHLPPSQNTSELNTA
Chain of CDK6/CyclinD3 (P30281 whole entry partner, species assumed): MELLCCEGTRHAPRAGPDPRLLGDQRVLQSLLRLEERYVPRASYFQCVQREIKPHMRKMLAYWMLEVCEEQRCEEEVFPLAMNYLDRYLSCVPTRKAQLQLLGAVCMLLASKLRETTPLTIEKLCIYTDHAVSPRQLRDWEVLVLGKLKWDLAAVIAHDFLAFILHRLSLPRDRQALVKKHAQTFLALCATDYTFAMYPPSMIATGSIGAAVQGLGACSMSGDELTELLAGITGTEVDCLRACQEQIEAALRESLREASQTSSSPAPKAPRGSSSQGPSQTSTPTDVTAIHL
Chain of CDK7/CyclinH/Mat1 (P50613 whole entry, species assumed): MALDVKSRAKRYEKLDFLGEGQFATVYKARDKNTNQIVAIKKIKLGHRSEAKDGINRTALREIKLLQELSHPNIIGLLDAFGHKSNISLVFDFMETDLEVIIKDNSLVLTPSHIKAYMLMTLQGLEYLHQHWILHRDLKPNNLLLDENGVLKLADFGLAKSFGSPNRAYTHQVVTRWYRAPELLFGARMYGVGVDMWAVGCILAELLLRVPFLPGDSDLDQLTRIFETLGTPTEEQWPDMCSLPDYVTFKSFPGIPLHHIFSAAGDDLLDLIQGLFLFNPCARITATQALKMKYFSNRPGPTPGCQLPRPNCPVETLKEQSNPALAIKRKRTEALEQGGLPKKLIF
Chain of CDK7/CyclinH/Mat1 (P51946 whole entry partner, species assumed): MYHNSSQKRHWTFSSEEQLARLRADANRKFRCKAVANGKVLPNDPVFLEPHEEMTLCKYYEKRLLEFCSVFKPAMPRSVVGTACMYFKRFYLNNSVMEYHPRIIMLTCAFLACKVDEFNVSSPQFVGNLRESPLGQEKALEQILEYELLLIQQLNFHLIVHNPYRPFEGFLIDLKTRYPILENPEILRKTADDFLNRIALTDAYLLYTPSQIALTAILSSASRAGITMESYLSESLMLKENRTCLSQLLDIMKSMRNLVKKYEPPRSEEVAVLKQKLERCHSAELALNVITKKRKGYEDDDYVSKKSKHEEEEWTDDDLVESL
Chain of CDK7/CyclinH/Mat1 (P51948 whole entry partner, species assumed): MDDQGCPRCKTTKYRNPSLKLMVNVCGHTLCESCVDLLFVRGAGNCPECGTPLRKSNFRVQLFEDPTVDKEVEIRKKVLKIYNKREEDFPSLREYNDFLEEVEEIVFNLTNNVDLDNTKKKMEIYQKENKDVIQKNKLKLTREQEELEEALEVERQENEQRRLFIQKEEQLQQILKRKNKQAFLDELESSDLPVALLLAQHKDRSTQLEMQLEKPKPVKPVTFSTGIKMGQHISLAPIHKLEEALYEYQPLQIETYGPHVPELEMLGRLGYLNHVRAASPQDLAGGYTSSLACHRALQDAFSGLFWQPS
Chain of CDK4/CyclinD1 (P11802 whole entry, species assumed): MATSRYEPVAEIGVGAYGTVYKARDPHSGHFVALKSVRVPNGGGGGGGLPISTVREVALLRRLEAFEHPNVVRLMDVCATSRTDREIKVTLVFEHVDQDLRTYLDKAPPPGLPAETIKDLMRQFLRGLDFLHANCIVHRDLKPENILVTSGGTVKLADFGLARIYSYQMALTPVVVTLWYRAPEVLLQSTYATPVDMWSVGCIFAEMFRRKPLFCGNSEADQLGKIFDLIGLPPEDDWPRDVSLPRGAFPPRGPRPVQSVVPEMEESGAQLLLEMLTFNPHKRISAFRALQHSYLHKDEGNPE
Chain of CDK4/CyclinD1 (P24385 whole entry partner, species assumed): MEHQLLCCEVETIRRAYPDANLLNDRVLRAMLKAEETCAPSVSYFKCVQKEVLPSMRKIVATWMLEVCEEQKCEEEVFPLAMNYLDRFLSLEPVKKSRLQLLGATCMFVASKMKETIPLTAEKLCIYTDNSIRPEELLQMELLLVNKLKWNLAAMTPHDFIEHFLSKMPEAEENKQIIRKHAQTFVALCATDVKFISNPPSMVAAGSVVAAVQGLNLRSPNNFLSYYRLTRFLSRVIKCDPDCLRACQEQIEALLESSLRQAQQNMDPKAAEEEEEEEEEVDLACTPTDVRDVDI
Chain of CDK9/CyclinT1 (P50750 whole entry, species assumed): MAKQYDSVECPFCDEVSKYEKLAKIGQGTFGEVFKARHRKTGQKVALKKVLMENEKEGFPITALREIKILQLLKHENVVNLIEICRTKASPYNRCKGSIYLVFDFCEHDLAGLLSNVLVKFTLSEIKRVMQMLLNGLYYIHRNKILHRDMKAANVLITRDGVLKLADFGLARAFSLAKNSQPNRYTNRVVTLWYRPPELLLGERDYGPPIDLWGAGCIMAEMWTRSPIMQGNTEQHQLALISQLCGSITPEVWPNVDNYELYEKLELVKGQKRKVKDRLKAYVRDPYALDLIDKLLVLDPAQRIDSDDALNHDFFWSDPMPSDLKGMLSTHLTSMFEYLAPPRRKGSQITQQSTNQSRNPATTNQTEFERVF
Chain of CDK9/CyclinT1 (O60563 whole entry partner, species assumed): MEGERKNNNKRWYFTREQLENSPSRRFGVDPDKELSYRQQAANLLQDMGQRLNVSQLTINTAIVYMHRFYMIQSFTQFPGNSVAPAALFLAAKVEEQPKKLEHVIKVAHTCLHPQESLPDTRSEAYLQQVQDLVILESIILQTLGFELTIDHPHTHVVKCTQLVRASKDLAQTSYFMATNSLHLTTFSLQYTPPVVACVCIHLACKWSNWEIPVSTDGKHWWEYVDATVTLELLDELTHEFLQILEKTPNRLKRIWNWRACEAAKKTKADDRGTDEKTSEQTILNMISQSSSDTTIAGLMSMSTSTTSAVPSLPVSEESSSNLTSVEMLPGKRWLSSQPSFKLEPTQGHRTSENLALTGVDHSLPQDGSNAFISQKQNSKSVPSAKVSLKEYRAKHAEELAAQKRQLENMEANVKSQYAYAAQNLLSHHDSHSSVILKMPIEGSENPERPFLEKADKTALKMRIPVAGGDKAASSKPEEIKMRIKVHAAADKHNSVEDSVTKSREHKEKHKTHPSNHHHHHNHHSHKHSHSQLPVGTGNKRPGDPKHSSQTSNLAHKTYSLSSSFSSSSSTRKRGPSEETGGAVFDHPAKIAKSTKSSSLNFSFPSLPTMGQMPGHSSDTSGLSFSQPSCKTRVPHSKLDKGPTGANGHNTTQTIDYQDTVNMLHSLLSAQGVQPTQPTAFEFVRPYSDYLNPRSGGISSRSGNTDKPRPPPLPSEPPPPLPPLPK

SMILES | GI50 (MV-4-11) [nM] | remaining activity at 1 µM (CDK1/CyclinB) [%] | remaining activity at 1 µM (CDK4/CyclinD1) [%] | remaining activity at 1 µM (CDK6/CyclinD3) [%] | Ki (CDK9/CyclinT1) [nM] | remaining activity at 1 µM (CDK7/CyclinH/Mat1) [%] | remaining activity at 1 µM (CDK2/CyclinA2) [%] | Ki (FLT3-ITD) [nM] | Ki (CDK1/CyclinB) [nM] | Ki (CDK4/CyclinD1) [nM] | Ki (CDK6/CyclinD3) [nM] | Ki (CDK7/CyclinH/Mat1) [nM] | Ki (CDK2/CyclinA2) [nM] | inhibition of CDK9 (in words) (CDK9/CyclinT1; compared with comparator compounds A, B and C (N-(pyridin-2-yl)pyrimidin-2-amine moiety))
O=C1NCCC12CCN(c1ccc(Nc3nccc(-c4cnc5ccc(-c6cnn(C(F)F)c6)cn45)n3)cn1)CC2 [Compound 73, 8-(5-((4-(6-(1-(Difluoromethyl)-1H-pyrazol-4-yl)imidazo[1,2-a]pyridin-3-yl)pyrimidin-2-yl)amino)pyridin-2-yl)-2,8-diazaspiro[4.5]decan-1-one] | 14 | 73 | 82 | 97 | > 500 | 83 | 80 | 116 | – | – | – | – | – | –
CS(=O)(=O)N1CCN(c2ccc(Nc3nccc(-c4cnc5ccc(-c6ccco6)cn45)n3)cn2)CC1 [Compound 51, 4-(6-(Furan-2-yl)imidazo[1,2-a]pyridin-3-yl)-N-(6-(4-(methylsulfonyl)piperazin-1-yl)pyridin-3-yl)pyrimidin-2-amine] | 17 | 77 | 96 | 43 | 286 | 80 | 85 | > 500 | – | – | – | – | – | –
CN1CCN(c2ccc(Nc3nccc(-c4cnc5ccc(-c6cnn(C)c6)cn45)n3)nc2)CC1 [Comparator compound B, 4-(6-(1-methyl-1H-pyrazol-4-yl)imidazo[1,2-a]pyridin-3-yl)-N-(5-(4-methylpiperazin-1-yl)pyridin-2-yl)pyrimidin-2-amine, reference compound] | 7 | 98 | 76 | 87 | > 500 | 70 | 99 | – | – | – | – | – | – | –
CN(C)c1ccc(Nc2nccc(-c3cnc4ccc(C5=CCN(C(=O)OC(C)(C)C)CC5)cn34)n2)cn1 [Compound 67, Tert-butyl 4-(3-(2-((6-(dimethylamino)pyridin-3-yl)amino)pyrimidin-4-yl)imidazo[1,2-a]pyridin-6-yl)-3,6-dihydropyridine-1(2H)-carboxylate] | 362 | 67 | – | 78 | 1630 | 68 | 93 | > 500 | – | – | – | – | – | –
O=C(c1ccco1)N1CCN(c2ccc(Nc3nccc(-c4cnc5ccc(Br)cn45)n3)cn2)CC1 [Compound 62, (4-(5-((4-(6-Bromoimidazo[1,2-a]pyridin-3-yl)pyrimidin-2-yl)amino)pyridin-2-yl)piperazin-1-yl)(furan-2-yl)methanone] | 52 | 39 | – | 76 | 541 | 60 | 57 | 188 | – | – | – | – | – | –
CN(C)c1ccc(Nc2nccc(-c3cnc4ccc(-c5ccccc5)cn34)n2)cn1 [Compound 66, N^2,N^2-Dimethyl-N^5-(4-(6-phenylimidazo[1,2-a]pyridin-3-yl)pyrimidin-2-yl)pyridine-2,5-diamine] | 17 | 76 | – | 79 | 468 | 64 | 73 | 220 | – | – | – | – | – | –

Now those with a lower Ki (CDK9/CyclinT1), led by results:

GI50 (MV-4-11) [nM] | remaining activity at 1 µM (CDK1/CyclinB) [%] | remaining activity at 1 µM (CDK4/CyclinD1) [%] | remaining activity at 1 µM (CDK6/CyclinD3) [%] | Ki (CDK9/CyclinT1) [nM] | remaining activity at 1 µM (CDK7/CyclinH/Mat1) [%] | remaining activity at 1 µM (CDK2/CyclinA2) [%] | Ki (FLT3-ITD) [nM] | Ki (CDK1/CyclinB) [nM] | Ki (CDK4/CyclinD1) [nM] | Ki (CDK6/CyclinD3) [nM] | Ki (CDK7/CyclinH/Mat1) [nM] | Ki (CDK2/CyclinA2) [nM] | SMILES | inhibition of CDK9 (in words) (CDK9/CyclinT1; compared with comparator compounds A, B and C (N-(pyridin-2-yl)pyrimidin-2-amine moiety))
78 | – | – | – | 168 | – | – | 3 | 152 | 55 | 54 | 560 | 63 | Cc1nc2ccc(F)cn2c1-c1ccnc(Nc2ccc(N3CCN(C)CC3)nc2)n1 [Compound 2, 4-(6-Fluoro-2-methylimidazo[1,2-a]pyridin-3-yl)-N-(6-(4-methylpiperazin-1-yl)pyridin-3-yl)pyrimidin-2-amine] | –
4 | – | – | – | 4 | – | – | 16 | 48 | 34 | – | 84 | 15 | Cc1ccc2ncc(-c3ccnc(Nc4ccc(N5CCN(C)CC5)nc4)n3)n2c1 [Compound 35, 4-(6-Methylimidazo[1,2-a]pyridin-3-yl)-N-(6-(4-methylpiperazin-1-yl)pyridin-3-yl)pyrimidin-2-amine] | –
181 | 67 | 72 | 46 | 20 | – | 26 | 23 | – | – | – | – | – | CN1CCN(c2ccc(Nc3nccc(-c4cnc5ccc(-c6cnc(N)nc6)cn45)n3)cn2)CC1 [Compound 23, 4-(6-(2-Aminopyrimidin-5-yl)imidazo[1,2-a]pyridin-3-yl)-N-(6-(4-methylpiperazin-1-yl)pyridin-3-yl)pyrimidin-2-amine] | –
10 | – | – | – | 77 | – | – | 7 | 153 | 718 | 2090 | – | 124 | CS(=O)(=O)N1CCN(c2ccc(Nc3nccc(-c4cnc5ccc(Br)cn45)n3)cn2)CC1 [Compound 16, 4-(6-Bromoimidazo[1,2-a]pyridin-3-yl)-N-(6-(4-(methylsulfonyl)piperazin-1-yl)pyridin-3-yl)pyrimidin-2-amine] | –
33 | – | 21 | – | 4 | – | – | 8 | 29 | – | – | – | 42 | CN1CCN(c2ccc(Nc3nccc(-c4cnc5ccc(-c6cn[nH]c6)cn45)n3)cn2)CC1 [Compound 24, 4-(6-(1H-Pyrazol-4-yl)imidazo[1,2-a]pyridin-3-yl)-N-(6-(4-methylpiperazin-1-yl)pyridin-3-yl)pyrimidin-2-amine] | –
– | 67 | 76 | 87 | 140 | 75 | 94 | – | – | – | – | – | – | CN1CCN(c2ccc(Nc3nccc(-c4cnc5ccc(-c6cccnc6)cn45)n3)nc2)CC1 [Comparator compound C, N-(5-(4-methylpiperazin-1-yl)pyridin-2-yl)-4-(6-(pyridin-3-yl)imidazo[1,2-a]pyridin-3-yl)pyrimidin-2-amine, reference compound] | –
39 | – | – | – | 10 | – | – | 10 | 145 | 49 | 295 | – | 44 | CC(C)N1CCN(c2ccc(Nc3nccc(-c4cnc5ccc(Br)cn45)n3)cn2)CC1 [Compound 38, 4-(6-Bromoimidazo[1,2-a]pyridin-3-yl)-N-(6-(4-isopropylpiperazin-1-yl)pyridin-3-yl)pyrimidin-2-amine] | –
10 | – | – | – | 2 | – | – | 15 | 645 | > 500 | – | – | 1030 | CN1CCN(c2ccc(Nc3nccc(-c4cnc5ccc(-c6cnn(C)c6)cn45)n3)cn2)CC1 [Compound 9, 4-(6-(1-Methyl-1H-pyrazol-4-yl)imidazo[1,2-a]pyridin-3-yl)-N-(6-(4-methylpiperazin-1-yl)pyridin-3-yl)pyrimidin-2-amine] | dramatically and surprisingly increased the potency of inhibition of CDK9
